Source: patent US8303964B2, “Viable non-toxic gram-negative bacteria” (priority 2006, dated 2012)
≈ marks a conversion by molar mass, not a printed value. Read-outs that look alike come from different tables or passages of the source. Bridge positions count the residues as written; N and C are the ends. Square brackets hold non-standard residues; d marks the D form. Peptide text beside a SMILES is read from it. * marks the point of attachment. Ileψ(thiazoline)Cys = CC[C@H](C)[C@H](N)C1=N[C@H](C(=O)*)CS1; dOrn = NCCC[C@@H](N)C(=O)O

Key:
[1] = target: gutQ (Escherichia coli, UniProt P17115); conditions: for alternate substrate, product appearance: determined by 31P-NMR
Method: This example describes enzyme assays used in experiments conducted during the course of the present invention. […] All plates contained internal Ru5P standards and appropriate A5P controls in triplicate. One unit of enzyme activity is defined as the conversion of 1 μmol of sugar phosphate per minute at 37° C.
This example describes the characterization of gutQ. […] After 10 minutes at 37° C., reactions containing the potential alternate substrates D-arabinose, D-ribose 5-phosphate, D-glucose 6-phosphate (G6P), D-glucose 1-phosphate, D-glucosamine 6-phosphate, or D-mannose 6-phosphate were quenched and the presence of ketose was determined. Product appearance for D/L-glyceraldehyde 3-phosphate, D-erythrose 4-phosphate, and D-fructose 6-phosphate was assayed by ^31P NMR. Kinetic constants were determined at 37° C. using the discontinuous microplate assay and were initiated by the addition of substrate. Concentrations typically ranged from 0.2Km to 10Km. […] Initial rates (v0) were determined in triplicate and fit to the standard Michaelis-Menten equation using nonlinear least-squares regression to determine Km and kcat values for both the formation and disappearance of Ru5P.

[2] = test system: BW30270; test: microbe, parasite or virus in culture; format: cell-based, E. coli K-12; conditions: LB media, 37° C., 18 hours, lowest concentration that completely inhibited growth; for MIC: Escherichia coli, read-out: Minimum Inhibitory Concentration BW30270
Method: (§1) The antibiotics used were from Sigma with the exception of cephaloridine, which was obtained from MicroSource Discovery Systems. Antibiotics were chosen based on their varying mode of action and entry into the cell. […] Colonies from LB agar plate were scraped and suspended in media (˜10^4 cells per mL) with varying concentrations of antibiotics. Cultures were incubated with shaking (˜200 rpm) at 37° C. for 18 hours at which point growth was scored by visual inspection.

[3] = test system: KPM22; test: microbe, parasite or virus in culture; format: cell-based, E. coli; conditions: for MIC: Escherichia coli, read-out: Minimum Inhibitory Concentration KPM22
Method: as §1

[4] = target: kdsD (Escherichia coli, UniProt P45395); conditions: cited from earlier work; for kcat / Km: kdsD; for kcat: A5P to Ru5P or Ru5P to A5P, labelled by substrate
[5] = substrate: O=C(CO)[C@H](O)[C@H](O)COP(=O)(O)O; test: purified protein, by the assay type; conditions: other: gutQ, 37° C., pH 8.25
[6] = substrate: O=C[C@@H](O)[C@H](O)[C@H](O)COP(=O)(O)O; test: purified protein, by the assay type; conditions: other: gutQ, 37° C., pH 8.25
[7] = LB media, 37° C., 18 hours, lowest concentration that completely inhibited growth

kdsD, sequence (P45395 whole entry): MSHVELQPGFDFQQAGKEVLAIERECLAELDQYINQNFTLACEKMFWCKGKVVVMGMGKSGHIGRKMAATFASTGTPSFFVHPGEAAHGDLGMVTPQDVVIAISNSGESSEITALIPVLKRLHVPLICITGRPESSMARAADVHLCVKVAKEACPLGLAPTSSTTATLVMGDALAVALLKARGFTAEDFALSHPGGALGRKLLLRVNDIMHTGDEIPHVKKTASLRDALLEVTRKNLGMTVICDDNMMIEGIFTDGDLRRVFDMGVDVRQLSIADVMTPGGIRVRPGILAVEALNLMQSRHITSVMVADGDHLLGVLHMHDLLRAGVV

With O=C(CO)[C@@H](O)[C@H](O)[C@H](O)COP(=O)(O)O [D-fructose 6-phosphate] the “alternate substrate, product appearance” value [1] was “served as alternate substrates”.

In the case of O=C[C@H](O)[C@H](O)COP(=O)(O)O [D-erythrose 4-phosphate], the “alternate substrate, product appearance” value [1] is reported as “served as alternate substrates”.

For CC[C@H](C)[C@H](N)C1=N[C@H](C(=O)N[C@@H](CC(C)C)C(=O)N[C@H](CCC(=O)O)C(=O)N[C@H](C(=O)N[C@H]2CCCCNC(=O)[C@H](CC(N)=O)NC(=O)[C@@H](CC(=O)O)NC(=O)[C@H](Cc3cnc[nH]3)NC(=O)[C@@H](Cc3ccccc3)NC(=O)[C@H]([C@@H](C)CC)NC(=O)[C@@H](CCCN)NC2=O)[C@@H](C)CC)CS1 [Bacitracin] ({Ileψ(thiazoline)Cys}-L[dE]IK[dOrn]I[dF]H[dD]N; lactam 4-C), the “Minimum Inhibitory Concentration BW30270” value [2] was 4096 µg/mL, the “Minimum Inhibitory Concentration KPM22” value [3, 7] was 512 µg/mL and the “Fold Difference in MIC” value ([3]; MIC BW30270 versus MIC KPM22) was 8 fold.

Molecule CC[C@H]1OC(=O)[C@H](C)[C@@H](O[C@H]2C[C@@](C)(OC)[C@@H](O)[C@H](C)O2)[C@H](C)[C@@H](O[C@@H]2O[C@H](C)C[C@H](N(C)C)[C@H]2O)[C@](C)(O)C[C@@H](C)C(=O)[C@H](C)[C@@H](O)[C@]1(C)O [Erythromycin] has an MIC [3, 7] of 1 µg/mL (≈ 1.36 µM).

For O=C(O)CN(CCN(CC(=O)O)CC(=O)O)CC(=O)O [EDTA], the “Activation by EDTA” value [4] is given as “Yes” and the “Activation by EDTA” value [1] is given as “Yes”.

For O=C[C@@H](O)[C@H](O)[C@H](O)COP(=O)(O)O [A5P, d-arabinose 5-phosphate], the kcat [4] is given as 157 ± 4 s⁻¹ and the Km [4] is given as 610 ± 60 µM.

CO[C@@H]1[C@@H](OC(N)=O)[C@@H](O)[C@H](Oc2ccc3c(O)c(NC(=O)c4ccc(O)c(CC=C(C)C)c4)c(=O)oc3c2C)OC1(C)C [Novobiocin] showed an MIC [3, 7] of 1 µg/mL (≈ 1.63 µM).

For O=C(Cc1cccs1)N[C@@H]1C(=O)N2C(C(=O)[O-])=C(C[n+]3ccccc3)CS[C@H]12 [Cephaloridine], the MIC [2] was 4 µg/mL (≈ 9.63 µM), the MIC [3, 7] was 4 µg/mL (≈ 9.63 µM) and the “Fold Difference in MIC” value ([3]; MIC BW30270 versus MIC KPM22) was 1 fold.

CO[C@H]1/C=C/O[C@@]2(C)Oc3c(C)c(O)c4c(O)c(c(/C=N/N5CCN(C)CC5)c(O)c4c3C2=O)NC(=O)/C(C)=C\C=C\[C@H](C)[C@H](O)[C@@H](C)[C@@H](O)[C@@H](C)[C@H](OC(C)=O)[C@@H]1C [Rifampin] showed an MIC [2] of 16 µg/mL (≈ 19.4 µM).

For [Zn+2] [Zn^2+], the “Inhibition by 10 μM Zn^2+” value [4] is given as “Yes” and the “Inhibition by 10 μM Zn^2+” value [1] is given as “Yes”.

For CC(=O)O[C@H]1C[C@@]2(C)[C@@H](C[C@@H](O)[C@H]3[C@@]4(C)CC[C@@H](O)[C@@H](C)[C@@H]4CC[C@@]32C)/C1=C(\CCC=C(C)C)C(=O)O [Fusidic Acid], the MIC [2] was 512 µg/mL (≈ 991 µM), the MIC [3, 7] was 2 µg/mL (≈ 3.87 µM) and the “Fold Difference in MIC” value ([3]; MIC BW30270 versus MIC KPM22) was 256 fold.

With CCCCCCCCCCCCOS(=O)(=O)[O-].[Na+] [Sodium dodecyl sulfate (SDS), Sodium dodecyl sulfate] the MIC [2] was > 32000 µg/mL, the MIC [3, 7] was 8 µg/mL and the “Fold Difference in MIC” value ([3]; MIC BW30270 versus MIC KPM22, listed as sodium dodecyl sulfate, sulfate) was > 4000 fold. The “Fold Difference in MIC” value ([3]; MIC BW30270 versus MIC KPM22, sulfate) was >4000 fold.

With O=CC(O)COP(=O)(O)O [D/L-glyceraldehyde 3-phosphate] the “alternate substrate, product appearance” value [1] was “served as alternate substrates”.

In the case of NC[C@H]1O[C@H](O[C@H]2[C@H](O)[C@@H](O[C@H]3O[C@H](CO)[C@@H](O)[C@H](N)[C@H]3O)[C@H](N)C[C@@H]2N)[C@H](O)[C@@H](O)[C@@H]1O [Kanamycin], the MIC [2] is reported as 16 µg/mL (≈ 33 µM), the MIC [3, 7] is reported as 1 µg/mL (≈ 2.06 µM) and the “Fold Difference in MIC” value ([3]; MIC BW30270 versus MIC KPM22) is reported as 16 fold.

For O=C(CO)[C@H](O)[C@H](O)COP(=O)(O)O [Ru5P, D-ribulose 5-phosphate], the kcat [4] is listed as 255 ± 16 s⁻¹ and the Km [4] is listed as 350 ± 80 µM.

CN[C@H](CC(C)C)C(=O)N[C@H]1C(=O)N[C@@H](CC(N)=O)C(=O)N[C@H]2C(=O)N[C@H]3C(=O)N[C@H](C(=O)N[C@H](C(=O)O)c4cc(O)cc(O)c4-c4cc3ccc4O)[C@H](O)c3ccc(c(Cl)c3)Oc3cc2cc(c3O[C@@H]2O[C@H](CO)[C@@H](O)[C@H](O)[C@H]2O[C@H]2C[C@](C)(N)[C@H](O)[C@H](C)O2)Oc2ccc(cc2Cl)[C@H]1O [Vancomycin] showed an MIC [2] of 256 µg/mL (≈ 177 µM) and an MIC [3, 7] of 32 µg/mL (≈ 22.1 µM).

Work on O=C(N[C@H](CO)[C@H](O)c1ccc([N+](=O)[O-])cc1)C(Cl)Cl [Chloramphenicol] yielded an MIC [2] of 8 µg/mL (≈ 24.8 µM) and an MIC [3, 7] of 2 µg/mL (≈ 6.19 µM).

With Polymyxin E the “Minimum Inhibitory Concentration BW30270” value [2] was 0.25 µg/mL, the “Minimum Inhibitory Concentration KPM22” value [3, 7] was 0.06 µg/mL and the “Fold Difference in MIC” value ([3]; MIC BW30270 versus MIC KPM22) was ~4 fold.

In the case of CC1(C)S[C@@H]2[C@H](NC(=O)[C@H](N)c3ccccc3)C(=O)N2[C@H]1C(=O)O [Ampicillin], the MIC [2] is reported as 4 µg/mL (≈ 11.4 µM), the “Fold Difference in MIC” value [3] is reported as 2 fold and the MIC ([3]; 18 h) is reported as 2 µg/mL (≈ 5.72 µM).

B1: gutQ (Escherichia coli K-12) (protein)
chain: MSEALLNAGRQTLMLELQEASRLPERLGDDFVRAANIILHCEGKVVVSGIGKSGHIGKKIAATLASTGTPAFFVHPAEALHGDLGMIESRDVMLFISYSGGAKELDLIIPRLEDKSIALLAMTGKPTSPLGLAAKAVLDISVEREACPMHLAPTSSTVNTLMMGDALAMAVMQARGFNEEDFARSHPAGALGARLLNKVHHLMRRDDAIPQVALTASVMDAMLELSRTGLGLVAVCDAQQQVQGVFTDGDLRRWLVGGGALTTPVNEAMTVGGTTLQSQSRAIDAKEILMKRKITAAPVVDENGKLTGAINLQDFYQAGII
In the case of B1, the Km [5] is reported as 640 ± 80 µM, the kcat [5] is reported as 242 ± 11 s⁻¹ and the Km [6] is reported as 1200 ± 100 µM. For the same molecule, the kcat [6] was 218 ± 4 s⁻¹.
